pIC50: −log10 of the molar value.

IGF1R Ba/F3, sequence (P08069 999-1274 limits assumed): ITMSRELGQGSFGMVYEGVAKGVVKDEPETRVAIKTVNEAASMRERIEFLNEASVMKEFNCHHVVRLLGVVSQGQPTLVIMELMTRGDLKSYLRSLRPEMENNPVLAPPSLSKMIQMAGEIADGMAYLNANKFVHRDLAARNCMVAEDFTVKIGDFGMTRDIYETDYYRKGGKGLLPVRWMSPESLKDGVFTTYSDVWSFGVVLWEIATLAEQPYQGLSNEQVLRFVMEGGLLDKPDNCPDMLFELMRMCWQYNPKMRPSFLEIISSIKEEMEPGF

This assay concerns the target IGF1R Ba/F3 (Homo sapiens, UniProt P08069). Put plainly: Ba/F3 Cell Viability Inhibition Assay (Tel-TK transformed Ba/F3 lines). Format: cell-based, murine. The arrangement: the printed alternative. The note with it: Tel-TK (IGF1R) transformed Ba/F3 cells, 48 hours incubation, cell viability (Britelite luminescence). From the text:
Ba/F3 is a murine IL-3-dependent pro-B lymphoma cell line. Parental Ba/F3 cells are used to generate a panel of sublines whose proliferation and survival is rendered IL-3-independent by stable transduction with individual tyrosine kinases activated by fusion with the amino-terminal portion of TEL (amino acid 1-375) or BCR. In order to generate Ba/F3 cell lines transformed by Tel-Tyrosine Kinase (TK) fusions, parental Ba/F3 cells are infected with a retrovirus harboring each TEL-fusion kinase and subjected to puromycin selection and IL-3 withdrawal to obtain IL-3-independent, transformed Ba/F3 cells.
Each transformed Ba/F3 cells are cultured in RPMI-1640 media (Gibco Cat #11875093, Carlsbad, Calif.) supplemented with 10% FBS (Hyclone Cat #SV30014.03, Logan, Utah), 4.5 g/L glucose (Sigma #G5400, St.Louis, Mo.), 1.5 g/L sodium bicarbonate (Biowhittaker #17-613E, Walkersville, Md.) and Pen/Strep (Gibco #10378-016, Carlsbad, Calif.). Cells are splitted twice weekly.
The potency of test compounds against various Tel-TK transformed Ba/F3 lines is determined as follows. Exponentially growing BaF3 Tel-TK cells are diluted in fresh medium to 75,000 cells/mL and seeded into 384-well plates (3750 cells/well) at 50 μL/well using a gill liquid dispenser (BioTek, Winooski, Vt., USA). Duplicate plates are run for each cell line. Test and control compounds are serially diluted with DMSO and arrayed in a polypropylene 384-well plate. 50 nL of compound is transferred into the assay plates using a pin-transfer device, and the plates are incubated at 37° C. (5% CO2) for 48 hours. 25 μL Britelite (Perkin Elmer) is added and luminescence is quantified using Analyst GT (Molecular Devices). Custom curve-fitting software is used to produce a logistic fit of percent cell viability as a function of the logarithm of inhibitor concentration. The IC50 is interpolated as the concentration of compound needed to reduce cell viability to 50% of a DMSO control. Parental Ba/F3 cells that are maintained and cultured in presence of IL-3 (1 ng/ml in final) are diluted in fresh medium containing IL-3 (1 ng/ml in final) to 75,000 cells/mL following the same procedure as described above.
What is called pIC50 is the IC50 on a negative log10 scale, so that one unit is a factor of ten. Higher therefore signals a small IC50. In the case of `Cc1cc(Nc2nc(Nc3cc(C)c([C@H]4CC[C@H](N5CCCCC5)CC4)cc3C)ncc2Cl)n[nH]1` [Compound 44, Trans-5-chloro-N2-(2,5-dimethyl-4-(4-(piperidin-1-yl)cyclohexyl)phenyl)-N4-(5-methyl-1H-pyrazol-3-yl)pyrimidine-2,4-diamine], the negative logarithm of the IC50 (pIC50) was 8.15.
The result for `Cc1cc(Nc2nc(Nc3cc(C)c(-c4ccc5c(c4)CCN(C)C5)cc3C)ncc2Cl)n[nH]1` [Compound 75, 5-chloro-N2-(2,5-dimethyl-4-(2-methyl-1,2,3,4-tetrahydroisoquinolin-6-yl)phenyl)-N4-(5-methyl-1H-pyrazol-3-yl)pyrimidine-2,4-diamine] reads 7.27; that for `Cc1cc(Nc2nc(Nc3cc(C)c([C@H]4CC[C@@H](N5CCOCC5)CC4)cc3F)ncc2C(F)(F)F)n[nH]1` [Compound 64, N2-(2-fluoro-5-methyl-4-((cis)-4-morpholinocyclohexyl)phenyl)-N4-(5-methyl-1H-pyrazol-3-yl)-5-(trifluoromethyl)pyrimidine-2,4-diamine], 7.30.
The result for `Cc1cc(Nc2nc(Nc3cc(C)c(-c4cccnc4)cc3F)ncc2Cl)n[nH]1` [Compound 3, 5-chloro-N2-(2-fluoro-5-methyl-4-(pyridin-3-yl)phenyl)-N4-(5-methyl-1H-pyrazol-3-yl)pyrimidine-2,4-diamine] reads 7.17; that for `Cc1cc(Nc2nc(Nc3cc(C)c(C4CCC(=NO)CC4)cc3C)ncc2Cl)n[nH]1` (stereo not shown) [Compound 33, 4-(4-(5-chloro-4-(5-methyl-1H-pyrazol-3-ylamino)pyrimidin-2-ylamino)-2,5-dimethylphenyl)cyclohexanone oxime], 7.82.
For `Cc1cc(Nc2nc(Nc3cc(C)c([C@H]4CC[C@H](N5CCCCC5)CC4)cc3C)ncc2C(F)(F)F)n[nH]1` [Compound 61, N2-(2,5-dimethyl-4-((trans)-4-(piperidin-1-yl)cyclohexyl)phenyl)-N4-(5-methyl-1H-pyrazol-3-yl)-5-(trifluoromethyl)pyrimidine-2,4-diamine], the pIC50 was 8.52.
The result for `Cc1cc(Nc2nc(Nc3cc(C)c([C@H]4CC[C@H](N5CCOCC5)CC4)cc3C)ncc2Cl)n[nH]1` [Compound 37, 5-chloro-N^2-(2,5-dimethyl-4-(4-trans-morpholinocyclohexyl)phenyl)-N^4-(5-methyl-1H-pyrazol-3-yl)pyrimidine-2,4-diamine] reads 7.96; that for `Cc1cc(Nc2nc(Nc3cc(C)c(-c4ccncc4)cc3F)ncc2Cl)n[nH]1` [Compound 2, 5-chloro-N2-(2-fluoro-5-methyl-4-(pyridin-4-yl)phenyl)-N4-(5-methyl-1H-pyrazol-3-yl)pyrimidine-2,4-diamine], 6.99; that for `C/C(=N\OCCN1CCOCC1)c1cc(C)c(Nc2ncc(Cl)c(Nc3cc(C)[nH]n3)n2)cc1C` [Compound 36, 1-(4-(5-chloro-4-(5-methyl-1H-pyrazol-3-ylamino)pyrimidin-2-ylamino)-2,5-dimethylphenyl)ethanone O-2-morpholinoethyl oxime], 6.73.
Take `Cc1cc(Nc2nc(Nc3cc(C)c([C@H]4CC[C@@H](N5CCCCC5)CC4)cc3F)ncc2C(F)(F)F)n[nH]1` [Compound 62, N^2-(2-fluoro-5-methyl-4-(cis-4-(piperidin-1-yl)cyclohexyl)phenyl)-N^4-(5-methyl-1H-pyrazol-3-yl)-5-(trifluoromethyl)pyrimidine-2,4-diamine]: the negative logarithm of the IC50 (pIC50) is 7.74. Compared with the last compound, the pIC50 is 1.01 log units higher.
The result for `Cc1cc(Nc2nc(Nc3cc(C)c([C@H]4CC[C@@H](N5CC[C@H](O)C5)CC4)cc3F)ncc2Cl)n[nH]1` [Compound 54, (S)-1-((Cis)-4-(4-(5-chloro-4-(5-methyl-1H-pyrazol-3-ylamino)pyrimidin-2-ylamino)-5-fluoro-2-methylphenyl)cyclohexyl)pyrrolidin-3-ol] reads 7.80; that for `Cc1cc(Nc2nc(Nc3cc(C)c(-c4ccsc4)cc3F)ncc2Cl)n[nH]1` [Compound 10, 5-chloro-N2-(2-fluoro-5-methyl-4-(thiophen-3-yl)phenyl)-N4-(5-methyl-1H-pyrazol-3-yl)pyrimidine-2,4-diamine], 6.08.
Turning to `Cc1cc(Nc2nc(Nc3ccc(C4CCN(CC(N)=O)CC4)c(C)n3)ncc2Cl)n[nH]1` [Compound 76, 2-(4-(6-(5-chloro-4-(5-methyl-1H-pyrazol-3-ylamino)pyrimidin-2-ylamino)-2-methylpyridin-3-yl)piperidin-1-yl)acetamide], the pIC50 was 5.75.
The result for `Cc1cc(Nc2nc(Nc3cc(C)c(-c4nccn4C)cc3C)ncc2Cl)n[nH]1` [Compound 25, 5-chloro-N2-(2,5-dimethyl-4-(1-methyl-1H-imidazol-2-yl)phenyl)-N4-(5-methyl-1H-pyrazol-3-yl)pyrimidine-2,4-diamine] reads 7.15; that for `Cc1cc(Nc2nc(Nc3cc(C)c(C4CCN(CC(N)=O)CC4)cn3)ncc2Cl)n[nH]1` [Compound 84, 2-(4-(6-(5-Chloro-4-(5-methyl-1H-pyrazol-3-ylamino)pyrimidin-2-ylamino)-4-methylpyridin-3-yl)piperidin-1-yl)acetamide], 6.28.
Next, `Cc1cc(Nc2nc(Nc3cc(C)c(-c4cnn(C)c4)cc3C)ncc2Cl)n[nH]1` [Compound 12, 5-chloro-N2-(2,5-dimethyl-4-(1-methyl-1H-pyrazol-4-yl)phenyl)-N4-(5-methyl-1H-pyrazol-3-yl)pyrimidine-2,4-diamine]: 7.60; `Cc1cc(Nc2nc(Nc3cc(C)c([C@H]4CC[C@H](N5CC[C@H](O)C5)CC4)cc3F)ncc2Cl)n[nH]1` [Compound 55, (S)-1-((Trans)-4-(4-(5-chloro-4-(5-methyl-1H-pyrazol-3-ylamino)pyrimidin-2-ylamino)-5-fluoro-2-methylphenyl)cyclohexyl)pyrrolidin-3-ol]: 7.49.
Next, `Cc1cc(Nc2nc(Nc3cc(C)c(-c4ncc[nH]4)cc3C)ncc2Cl)n[nH]1` [Compound 17, N2-(4-(1H-imidazol-2-yl)-2,5-dimethylphenyl)-5-chloro-N4-(5-methyl-1H-pyrazol-3-yl)pyrimidine-2,4-diamine]: 7.17; `Cc1cc(Nc2nc(Nc3cc(C)c(C(=O)N4CCOCC4)cc3C)ncc2Cl)n[nH]1` [Compound 32, (4-(5-chloro-4-(5-methyl-1H-pyrazol-3-ylamino)pyrimidin-2-ylamino)-2,5-dimethylphenyl)(morpholino)methanone]: 6.35; `Cc1cc(Nc2nc(Nc3cc(C)c([C@H]4CC[C@@H](N5CCOCC5)CC4)cc3C)ncc2Cl)n[nH]1` [Compound 38, 5-chloro-N^2-(2,5-dimethyl-4-(4-cis-morpholinocyclohexyl)phenyl)-N^4-(5-methyl-1H-pyrazol-3-yl)pyrimidine-2,4-diamine]: 8.05.
For the compound `Cc1cc(Nc2nc(Nc3cc(C)c([C@H]4CC[C@H](N5CCCCC5)CC4)cc3F)ncc2Cl)n[nH]1` [Compound 49, Trans-5-chloro-N2-(2-fluoro-5-methyl-4-(4-(piperidin-1-yl)cyclohexyl)phenyl)-N4-(5-methyl-1H-pyrazol-3-yl)pyrimidine-2,4-diamine], the negative-log IC50 (pIC50) is 7.40.
`Cc1cc(Nc2nc(Nc3cc(C)c(-c4csc(C)n4)cc3C)ncc2Cl)n[nH]1` [Compound 24, 5-chloro-N2-(2,5-dimethyl-4-(2-methylthiazol-4-yl)phenyl)-N4-(5-methyl-1H-pyrazol-3-yl)pyrimidine-2,4-diamine] showed a negative logarithm of the IC50 (pIC50) of 6.97.

The record behind these values is patent US8445505B2 (IRM LLC, priority 2008, dated 2013).
